Laboratory results published in PubChem BioAssay (NCI).
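These data come from cells grown in 96-well plates and exposed to compound for 48 hours at five concentrations. GI50: concentration for 50% inhibition of growth. TGI: total growth inhibition.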

Columns and labels:
Assay in all cases: NCI anticancer screen, dose series, 48 h
SK-OV-3 ovarian = system: SK-OV-3 ovarian
M14 melanoma = system: M14 melanoma
ACHN renal = system: ACHN renal
A549 NSCLC = system: A549 NSCLC
SK-MEL-28 melanoma = system: SK-MEL-28 melanoma
RPMI-8226 leukemia = system: RPMI-8226 leukemia
CAKI-1 renal = system: CAKI-1 renal
NCI-H460 lung = system: NCI-H460 lung
OVCAR-5 ovarian = system: OVCAR-5 ovarian
SW-620 colon = system: SW-620 colon

| SMILES | TGI (SK-OV-3 ovarian) | TGI (M14 melanoma) | TGI (ACHN renal) | TGI (A549 NSCLC) | TGI (SK-MEL-28 melanoma) | TGI (RPMI-8226 leukemia) | TGI (CAKI-1 renal) | TGI (NCI-H460 lung) | TGI (OVCAR-5 ovarian) | TGI (SW-620 colon) | GI50 (SK-OV-3 ovarian) | GI50 (M14 melanoma) | GI50 (ACHN renal) | GI50 (A549 NSCLC) | GI50 (SK-MEL-28 melanoma) | GI50 (RPMI-8226 leukemia) | GI50 (CAKI-1 renal) | GI50 (NCI-H460 lung) | GI50 (OVCAR-5 ovarian) | GI50 (SW-620 colon) |
| --- | --- | --- | --- | --- | --- | --- | --- | --- | --- | --- | --- | --- | --- | --- | --- | --- | --- | --- | --- | --- |
| CCOC(=O)/C(=C/c1ccc(Cl)cc1)N(CC)CC | > 100 µM | > 100 µM | > 100 µM | > 100 µM | > 100 µM | > 100 µM | > 100 µM | > 100 µM | > 100 µM | > 100 µM | – | – | – | – | – | – | – | – | – | – |
| COc1ccc(NC(=O)CC(=O)n2nc(-c3ccccc3)c(N=Nc3ccccc3C)c2-c2ccccc2)cc1 | 36.3 µM | > 100 µM | 63.7 µM | 41.7 µM | > 63.2 µM | > 100 µM | > 64.8 µM | 53.5 µM | > 100 µM | > 62.3 µM | – | – | – | – | – | – | – | – | – | – |
| C(=C\c1nc2ccccc2s1)/c1ccc(N2CCOCC2)s1 | > 100 µM | > 100 µM | > 100 µM | > 100 µM | > 100 µM | > 100 µM | > 100 µM | > 100 µM | > 100 µM | > 100 µM | 90.7 µM | > 100 µM | 33.4 µM | 31.8 µM | > 100 µM | 25.6 µM | > 100 µM | 51.3 µM | 66.9 µM | > 100 µM |
| Cc1cc2c(=O)c3ccccc3oc2c(C#N)c1C | > 100 µM | > 100 µM | > 100 µM | > 100 µM | > 100 µM | > 100 µM | > 100 µM | > 100 µM | > 100 µM | > 100 µM | – | – | – | – | – | – | – | – | – | – |
| CS(=O)(=O)c1ccc(-c2[nH]c3ccc(F)cc3c2/C=N/NC(N)=S)cc1 | > 100 µM | 22.3 µM | > 100 µM | > 100 µM | > 100 µM | 6.64 µM | > 100 µM | > 100 µM | > 100 µM | > 100 µM | 1.86 µM | 0.312 µM | 2.17 µM | 2.86 µM | 12.3 µM | 0.475 µM | 3.86 µM | 2.28 µM | 3.74 µM | 0.575 µM |
| Cc1cccc2c1NC(=O)C2(c1ccc(O)cc1)c1ccc(O)cc1 | 42 µM | 41 µM | > 100 µM | > 100 µM | 46.5 µM | 64 µM | > 100 µM | 40.8 µM | 67.1 µM | 69.8 µM | 19.2 µM | 15.5 µM | 12.4 µM | 21.1 µM | 16.4 µM | 17.9 µM | 26.2 µM | 18.5 µM | 12.8 µM | 20.8 µM |
| NC(=O)OCC(COc1ccc(Cl)cc1)OC(=O)c1cc([N+](=O)[O-])cc([N+](=O)[O-])c1 (stereo not given) | > 100 µM | > 100 µM | > 100 µM | > 100 µM | > 100 µM | > 100 µM | > 100 µM | > 100 µM | > 100 µM | 27.6 µM | – | – | – | – | – | – | – | – | – | – |
| O=C(Nc1ccc(O)c(NS(=O)(=O)c2ccc(F)cc2)c1)c1ccc(-c2ccccc2)cc1 | 44.2 µM | 21.6 µM | 25.7 µM | 29.9 µM | 23.5 µM | 18.2 µM | 32.6 µM | 15.9 µM | 27 µM | 22.2 µM | 18.8 µM | 7.32 µM | 6.3 µM | 4.81 µM | 9.06 µM | 2.87 µM | 5.65 µM | 3.85 µM | 13.6 µM | 7.23 µM |
| O=C(O)CP(=O)(c1ccccc1)c1ccccc1.O=C(O)CP(=O)(c1ccccc1)c1ccccc1.[Cd] | 44.5 µM | 53.8 µM | 30.4 µM | 35.1 µM | 41.8 µM | 0.991 µM | 38.9 µM | > 100 µM | 30.6 µM | 42.6 µM | 20.2 µM | 17.3 µM | 16.1 µM | 17.1 µM | 17.9 µM | 0.277 µM | 22.7 µM | 3.9 µM | 16 µM | 19.6 µM |
| Cc1[nH]c2ccccc2c1C1=CC(=O)C=CC1=O | 33.5 µM | 27.7 µM | 12.5 µM | 63.9 µM | 27.4 µM | 38.2 µM | 22.6 µM | 42.2 µM | 32.8 µM | 23 µM | 14.5 µM | 13.6 µM | 3.63 µM | 21 µM | 14.1 µM | 11 µM | 5.66 µM | 15.5 µM | 17.7 µM | 4.55 µM |
